Key:
[1] = system: parasite kinase activity which phosphorylates Toxofilin; experiment: Kinase reaction on rToxofilin with tachyzoïte cytosolic fraction, with pharmacological inhibitors; assay type: biochemical, Toxoplasma gondii; details: inhibitors added 15 min before starting the kinase reaction: heparin 20 μg per ml, GTP 200 μM, DRB 100 μM, [γ32P] ATP, 30° C.
Procedure: Kinase reaction: 2 μg of immobilized rToxofilin on protein G-dynabeads were washed in kinase buffer before to be incubated with a tachyzoïte cytosolic fraction prepared in kinase buffer ([…]) and precleared on protein G-dynabeads. The reaction was started by adding 100 μM of Na2 ATP and 10 μCi of [γ^32P] ATP (3000 Ci/mmol, NEN life science product, Inc) (15 min, 30° C.). Unbound materials and unincorporated [γ^32P] ATP were washed out with 200 volumes of kinase buffer containing with TX-100 (0.5% vol/vol) followed by 100 volumes of kinase buffer. Toxofilin and bound proteins were eluted in SDS-PAGE sample buffer prior to electrophoresis and radioactivity scan (phosphoimager, Molecular Dynamics). Toxofilin phosphorylation was quantified using NIH Image Quant software.
To characterize the kinase activity responsible for Toxofilin phosphorylation, three types of experiments were carried out:
1) Pharmacological inhibitors such as heparin (20 μg per ml, Sigma), GTP (200 μM, Sigma), 5,6-dichloro-1-B-D-ribofuranosylbenzimidazole (100 μM, Calbiochem) or staurosporine (1 μM, Calbiochem) were added 15 min before starting the kinase reaction.

[2] = system: recombinant Toxofilin (r-Toxofilin) without GST
[3] = biological target: recombinant Toxofilin (r-Toxofilin) without GST; remark: listed apart in the source

Molecule	inhibition of the parasite kinase activity which phosphorylates Toxofilin [1]	also measured
OC[C@H]1O[C@@H](n2cnc3cc(Cl)c(Cl)cc32)[C@H](O)[C@@H]1O [DRB, 5,6-dichloro-1-B-D-ribofuranosylbenzimidazole]	inhibited	–
Nc1nc2c(ncn2[C@@H]2O[C@H](COP(=O)(O)OP(=O)(O)OP(=O)(O)O)[C@@H](O)[C@H]2O)c(=O)[nH]1 [GTP]	inhibited	–
Human casein kinase II	–	phosphorylation of Toxofilin [2]: Human casein kinase II works well at phosphorylating Toxofilin
heparin [soluble heparin]	inhibited	–
Thioredoxin-Hispatch Tg PP2C (protein) MKSSAEIRRTMDVPPTIHVPLPPTSYPAFDAAIFTDIGGRKHQEDRFTLCPQLVPGRDDCAFFGVFDGTVGDFASENVKDLVVPQLISSPAWQEVTEMLRSDVPATEVDEKLPQLLDQAVDDMYKNADNELVKMCEQLNKDYASSTSVTAVLAKGFVAVGHLGDSRIAMGVETPNGLNCEFLTVDHKPDMPHEKLRIMRNGGSVEYLHNHNNKPFIRGGDFSFRKSRGEQPMQLQYSRALGGKDLKMYGLSNQPDVRVVRVTPQHRVMILATDGLWDVMFAAQAVEIAMQARQEGRNPAQALVEMTLAEQQSRNQSADNITAMTVFFKKTD	–	in vitro phosphatase assay on 32P-phosphorylated Toxofilin [3]: Toxofilin is a major substrate for type 2C phosphatase
